PubChem BioAssay (NCI)
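Where inhibition never reached the appropriate level, the endpoint shown equals the highest concentration tested. Otherwise, values were interpolated linearly from a five-concentration, 48-hour dose response in 96-well plates. TGI: total growth inhibition.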

How the values were obtained:
Experiment in all cases: DTP human tumour cell line panel, 48 h
786-0 renal = system: 786-0 renal
A498 renal = system: A498 renal
A549 NSCLC = system: A549 NSCLC
ACHN renal = system: ACHN renal
BT-549 breast = system: BT-549 breast
CAKI-1 renal = system: CAKI-1 renal
CCRF-CEM leukemia = system: CCRF-CEM leukemia
COLO 205 colon = system: COLO 205 colon
DU-145 prostate = system: DU-145 prostate
EKVX NSCLC = system: EKVX NSCLC
HCC-2998 colon = system: HCC-2998 colon
HCT-116 colon = system: HCT-116 colon
HCT-15 colon = system: HCT-15 colon
HL-60(TB) leukemia = system: HL-60(TB) leukemia
HOP-62 NSCLC = system: HOP-62 NSCLC
HOP-92 NSCLC = system: HOP-92 NSCLC
HS 578T breast = system: HS 578T breast
HT29 colon = system: HT29 colon
IGROV1 ovarian = system: IGROV1 ovarian
K-562 leukemia = system: K-562 leukemia
KM12 colon = system: KM12 colon
LOX IMVI melanoma = system: LOX IMVI melanoma
M14 melanoma = system: M14 melanoma
MALME-3M melanoma = system: MALME-3M melanoma
MCF7 breast = system: MCF7 breast
MDA-MB-231 breast = system: MDA-MB-231 breast
MDA-MB-435 = system: MDA-MB-435
MDA-N = system: MDA-N
MOLT-4 leukemia = system: MOLT-4 leukemia
NCI-H226 lung = system: NCI-H226 lung
NCI-H23 lung = system: NCI-H23 lung
NCI-H460 lung = system: NCI-H460 lung
NCI-H522 lung = system: NCI-H522 lung
NCI/ADR-RES ovarian = system: NCI/ADR-RES ovarian
OVCAR-3 ovarian = system: OVCAR-3 ovarian
OVCAR-4 ovarian = system: OVCAR-4 ovarian
OVCAR-5 ovarian = system: OVCAR-5 ovarian
OVCAR-8 ovarian = system: OVCAR-8 ovarian
PC-3 prostate = system: PC-3 prostate
RPMI-8226 leukemia = system: RPMI-8226 leukemia
RXF 393 renal = system: RXF 393 renal
SF-268 CNS = system: SF-268 CNS
SF-295 CNS = system: SF-295 CNS
SF-539 CNS = system: SF-539 CNS
SK-MEL-2 melanoma = system: SK-MEL-2 melanoma
SK-MEL-28 melanoma = system: SK-MEL-28 melanoma
SK-MEL-5 melanoma = system: SK-MEL-5 melanoma
SK-OV-3 ovarian = system: SK-OV-3 ovarian
SN12C renal = system: SN12C renal
SNB-19 CNS = system: SNB-19 CNS
SNB-75 CNS = system: SNB-75 CNS
SR leukemia = system: SR leukemia
SW-620 colon = system: SW-620 colon
T-47D breast = system: T-47D breast
TK-10 renal = system: TK-10 renal
U251 CNS = system: U251 CNS
UACC-257 melanoma = system: UACC-257 melanoma
UACC-62 melanoma = system: UACC-62 melanoma
UO-31 renal = system: UO-31 renal
DLD-1 colon = system: DLD-1 colon
DMS 114 small cell lung = system: DMS 114 small cell lung
DMS 273 small cell lung = system: DMS 273 small cell lung
LXFL 529 NSCLC = system: LXFL 529 NSCLC
M19-MEL melanoma = system: M19-MEL melanoma

O=c1[nH]c2cc3cccnc3c(Cl)c2nc1C(F)(F)F
TGI (786-0 renal): > 100 µM
TGI (A498 renal): > 100 µM
TGI (A549 NSCLC): > 100 µM
TGI (ACHN renal): > 100 µM
TGI (BT-549 breast): 86.7 µM
TGI (CAKI-1 renal): 65.4 µM
TGI (CCRF-CEM leukemia): 98.2 µM
TGI (COLO 205 colon): > 100 µM
TGI (DU-145 prostate): > 100 µM
TGI (EKVX NSCLC): > 100 µM
TGI (HCC-2998 colon): > 100 µM
TGI (HCT-116 colon): > 100 µM
TGI (HCT-15 colon): > 100 µM
TGI (HL-60(TB) leukemia): > 100 µM
TGI (HOP-62 NSCLC): > 100 µM
TGI (HOP-92 NSCLC): 60.5 µM
TGI (HS 578T breast): > 100 µM
TGI (HT29 colon): > 100 µM
TGI (IGROV1 ovarian): > 100 µM
TGI (K-562 leukemia): > 100 µM
TGI (KM12 colon): 63.7 µM
TGI (LOX IMVI melanoma): > 100 µM
TGI (M14 melanoma): > 100 µM
TGI (MALME-3M melanoma): > 100 µM
TGI (MCF7 breast): > 100 µM
TGI (MDA-MB-231 breast): > 100 µM
TGI (MDA-MB-435): > 100 µM
TGI (MDA-N): > 100 µM
TGI (MOLT-4 leukemia): 83.2 µM
TGI (NCI-H226 lung): > 100 µM
TGI (NCI-H23 lung): > 100 µM
TGI (NCI-H460 lung): > 100 µM
TGI (NCI-H522 lung): > 100 µM
TGI (NCI/ADR-RES ovarian): > 100 µM
TGI (OVCAR-3 ovarian): > 100 µM
TGI (OVCAR-4 ovarian): 83 µM
TGI (OVCAR-5 ovarian): > 100 µM
TGI (OVCAR-8 ovarian): > 100 µM
TGI (PC-3 prostate): > 100 µM
TGI (RPMI-8226 leukemia): > 100 µM
TGI (RXF 393 renal): > 100 µM
TGI (SF-268 CNS): > 100 µM
TGI (SF-295 CNS): > 100 µM
TGI (SF-539 CNS): > 100 µM
TGI (SK-MEL-2 melanoma): > 100 µM
TGI (SK-MEL-28 melanoma): > 100 µM
TGI (SK-MEL-5 melanoma): 29.8 µM
TGI (SK-OV-3 ovarian): > 100 µM
TGI (SN12C renal): > 100 µM
TGI (SNB-19 CNS): > 100 µM
TGI (SNB-75 CNS): 90.1 µM
TGI (SR leukemia): > 100 µM
TGI (SW-620 colon): > 100 µM
TGI (T-47D breast): 88.1 µM
TGI (TK-10 renal): > 100 µM
TGI (U251 CNS): > 100 µM
TGI (UACC-257 melanoma): > 100 µM
TGI (UACC-62 melanoma): > 100 µM
TGI (UO-31 renal): > 100 µM

Oc1ccc2c(c1)CC[N+]1=C2CCC2CCCC21 (stereo not given)
TGI (786-0 renal): > 100 µM
TGI (A549 NSCLC): > 100 µM
TGI (ACHN renal): > 100 µM
TGI (CAKI-1 renal): > 100 µM
TGI (COLO 205 colon): > 100 µM
TGI (DLD-1 colon): > 100 µM
TGI (DMS 114 small cell lung): > 100 µM
TGI (DMS 273 small cell lung): > 100 µM
TGI (EKVX NSCLC): > 100 µM
TGI (HCC-2998 colon): > 100 µM
TGI (HCT-116 colon): > 100 µM
TGI (HCT-15 colon): > 100 µM
TGI (HOP-92 NSCLC): > 100 µM
TGI (HT29 colon): > 100 µM
TGI (IGROV1 ovarian): > 100 µM
TGI (LOX IMVI melanoma): > 100 µM
TGI (LXFL 529 NSCLC): > 100 µM
TGI (M14 melanoma): > 100 µM
TGI (M19-MEL melanoma): > 100 µM
TGI (NCI-H226 lung): > 100 µM
TGI (NCI-H23 lung): > 100 µM
TGI (NCI-H460 lung): > 100 µM
TGI (OVCAR-3 ovarian): > 100 µM
TGI (OVCAR-4 ovarian): > 100 µM
TGI (OVCAR-5 ovarian): > 100 µM
TGI (OVCAR-8 ovarian): > 100 µM
TGI (RXF 393 renal): > 100 µM
TGI (SF-268 CNS): > 100 µM
TGI (SF-295 CNS): > 100 µM
TGI (SF-539 CNS): > 100 µM
TGI (SK-MEL-2 melanoma): > 100 µM
TGI (SK-MEL-28 melanoma): > 100 µM
TGI (SK-MEL-5 melanoma): > 100 µM
TGI (SK-OV-3 ovarian): > 100 µM
TGI (SN12C renal): > 100 µM
TGI (SNB-19 CNS): > 100 µM
TGI (SNB-75 CNS): > 100 µM
TGI (SW-620 colon): > 100 µM
TGI (TK-10 renal): > 100 µM
TGI (UACC-62 melanoma): > 100 µM
TGI (UO-31 renal): > 100 µM
